Data as given in ChEMBL document CHEMBL1806420, “Design, synthesis and antimycobacterial evaluation of novel 3-substituted-N-aryl-6,7-dimethoxy-3a,4-dihydro-3H-indeno[1,2-c]pyrazole-2-carboxamide analogues” (Bioorg Med Chem Lett, 2011).
Values after ≈ are worked out from the molar mass of the structure shown.

Experiments:
[1] = tested on: Mycobacterium tuberculosis; assay: Antimycobacterial activity against Mycobacterium tuberculosis H37Rv by agar dilution method; format: functional
[2] = tested on: Vero; assay: Cytotoxicity against african green monkey Vero cells upto 62.5 ug/ml after 72 hrs by MTT assay; format: cell-based; conditions: chlorocebus sabaeus

Structure (SMILES): COc1cc2c(cc1OC)C1=NN(C(=O)Nc3ccc(F)c(Cl)c3)C(c3ccccc3)C1C2 (configuration not stated)
- MIC [1]: 6.25 µM (≈ 2.91 µg/mL)
- Activity [2]: Non-toxic

Structure (SMILES): COc1ccc(C2C3Cc4cc(OC)c(OC)cc4C3=NN2C(=O)Nc2ccc(F)c(Cl)c2)cc1 (configuration not stated)
- MIC [1]: > 6.25 µM

Structure (SMILES): COc1cc2c(cc1OC)C1=NN(C(=O)Nc3ccc(F)cc3)C(c3ccncc3)C1C2 (configuration not stated)
- MIC [1]: 3.12 µM (≈ 1.35 µg/mL)
- Activity [2]: Non-toxic

Structure (SMILES): COc1cc2c(cc1OC)C1=NN(C(=O)Nc3ccc(F)cc3)C(c3ccccc3Cl)C1C2 (configuration not stated)
- MIC [1]: 6.25 µM (≈ 2.91 µg/mL)
- Activity [2]: Non-toxic

Structure (SMILES): COc1cc2c(cc1OC)C1=NN(C(=O)Nc3ccc(F)cc3)C(c3ccc(F)cc3)C1C2 (configuration not stated)
- MIC [1]: 0.78 µM (≈ 0.351 µg/mL)
- Activity [2]: Non-toxic

Structure (SMILES): COc1ccc(C2C3Cc4cc(OC)c(OC)cc4C3=NN2C(=O)Nc2ccc(F)cc2)cc1OC (configuration not stated)
- MIC [1]: > 10 µM
- Activity [2]: Non-toxic

Structure (SMILES): COc1cc2c(cc1OC)C1=NN(C(=O)Nc3ccc(F)cc3)C(c3ccccc3)C1C2 (configuration not stated)
- MIC [1]: > 6.25 µM

Structure (SMILES): COc1ccc(C2C3Cc4cc(OC)c(OC)cc4C3=NN2C(=O)Nc2ccc(F)cc2)cc1 (configuration not stated)
- MIC [1]: 10 µM (≈ 4.61 µg/mL)
- Activity [2]: Non-toxic

Structure (SMILES): COc1cc2c(cc1OC)C1=NN(C(=O)Nc3ccc(Br)cc3)C(c3ccncc3)C1C2 (configuration not stated)
- MIC [1]: 6.25 µM (≈ 3.08 µg/mL)
- Activity [2]: Non-toxic

Structure (SMILES): COc1cc2c(cc1OC)C1=NN(C(=O)Nc3ccc(Br)cc3)C(c3ccccc3Cl)C1C2 (configuration not stated)
- MIC [1]: > 6.25 µM

Structure (SMILES): COc1cc2c(cc1OC)C1=NN(C(=O)Nc3ccc(Br)cc3)C(c3ccc(F)cc3)C1C2 (configuration not stated)
- MIC [1]: 3.12 µM (≈ 1.59 µg/mL)
- Activity [2]: Non-toxic

Structure (SMILES): COc1ccc(C2C3Cc4cc(OC)c(OC)cc4C3=NN2C(=O)Nc2ccc(Br)cc2)cc1OC (configuration not stated)
- MIC [1]: > 10 µM
- Activity [2]: Non-toxic

Structure (SMILES): COc1cc2c(cc1OC)C1=NN(C(=O)Nc3ccc(Br)cc3)C(c3ccccc3)C1C2 (configuration not stated)
- MIC [1]: > 6.25 µM

Structure (SMILES): COc1ccc(C2C3Cc4cc(OC)c(OC)cc4C3=NN2C(=O)Nc2ccc(Br)cc2)cc1 (configuration not stated)
- MIC [1]: > 10 µM
- Activity [2]: Non-toxic

Structure (SMILES): COc1cc2c(cc1OC)C1=NN(C(=O)Nc3ccc(F)c(Cl)c3)C(c3ccncc3)C1C2 (configuration not stated)
- MIC [1]: > 6.25 µM

Structure (SMILES): COc1cc2c(cc1OC)C1=NN(C(=O)Nc3ccc(F)c(Cl)c3)C(c3ccccc3Cl)C1C2 (configuration not stated)
- MIC [1]: 6.25 µM (≈ 3.13 µg/mL)
- Activity [2]: Non-toxic

Structure (SMILES): COc1cc2c(cc1OC)C1=NN(C(=O)Nc3ccc(F)c(Cl)c3)C(c3ccc(F)cc3)C1C2 (configuration not stated)
- MIC [1]: 0.78 µM (≈ 0.377 µg/mL)
- Activity [2]: Non-toxic

Structure (SMILES): COc1ccc(C2C3Cc4cc(OC)c(OC)cc4C3=NN2C(=O)Nc2ccc(F)c(Cl)c2)cc1OC (configuration not stated)
- MIC [1]: > 6.25 µM

Structure (SMILES): NNC(=O)c1ccncc1 [ISONIAZID]
- MIC [1]: 0.78 µM (≈ 0.107 µg/mL)

Structure (SMILES): CO[C@H]1/C=C/O[C@@]2(C)Oc3c(C)c(O)c4c(O)c(c(/C=N/N5CCN(C)CC5)c(O)c4c3C2=O)NC(=O)/C(C)=C\C=C\[C@H](C)[C@H](O)[C@@H](C)[C@@H](O)[C@@H](C)[C@H](OC(C)=O)[C@@H]1C [RIFAMPIN]
- MIC [1]: 0.006 µM (≈ 0.00494 µg/mL)
